The text below walks through data of ChEMBL document CHEMBL3507680, “University of Dundee, Gates Library screen for HepG2 cell viability”.

A short description of this data set: Human HepG2 cell viability assay in 384 well format. It counts as toxicity, cell-based. On the set-up: dose 125 nL, time 70.5 hour; concentration not given beside the values. The following applies: HepG2 cells, read-out: Inhibition.
Turning to `Cc1cnn(CC2CCCCN2C(=O)c2cc(C(N)=O)cs2)c1` (centres undefined), the cytotoxicity at 70.5 h turned out to be 28.2%.
For the molecule `COc1cc(CNCc2c(C)nn(CC(C)C)c2N(C)C)ccn1`, the cytotoxicity at 70.5 h is 27.3%.
Then `O=C(CC1CCc2ccccc21)N1CCC(C(=O)O)(n2ccnc2)CC1` (centres undefined), with 22.5%; and `CCN1CCC12CCN(C(=O)c1ccsc1)C2` (centres undefined), with -12.4%.
Regarding `CCC[C@H]1CN(Cc2cc(C#N)n(C)c2C)C[C@@H]1N(C)C`, the cytotoxicity at 70.5 h is -7.07%.
In the case of `Cc1nc(NCC2CC2)nc2c1COCC21CCN(C(=O)NC(C)C)C1` (centres undefined) it was -5.59%; in that of `CC(=O)C(Cc1ccccc1)NC(=O)CSc1nccn1C1CC1` (centres undefined), -0.98%.
Then `CCOC(=O)N1CC(=O)N(Cc2ccc(OC)cc2)CC(O)C1` (centres undefined), with 0.836%; and `COCCNC(=O)C1CN(Cc2cccc(C)n2)Cc2ccnn2C1` (centres undefined), with -5.1%; and `CCOC1COC2(CCN(Cc3cccnc3OC)CC2)C1` (centres undefined), with -1.38%.
Then `CCCC(NC(=O)c1cncc(C)c1)c1nnn[nH]1` (centres undefined), with 6.22%.
In the case of `Cc1n[nH]c(C)c1-c1cc(-c2cc[nH]c2)nc(N)c1C#N`, the cytotoxicity at 70.5 h is -12.3%.
`COCC(=O)N1CCC(c2cc3nc(C)cc(C(F)(F)F)n3n2)CC1`: the cytotoxicity at 70.5 h amounted to 25.3%.
Then `CC(C)CNC(=O)Cn1cc(C(N)=O)c(-c2ccccc2)n1`, with -8.01%; and `O=C(c1ccc(C2CCCN2C(=O)c2cscn2)s1)N1CCSCC1` (centres undefined), with -11.1%; and `CSCc1noc(CNC(=O)C2CCN(C(=O)C3CCCC3)CC2)n1`, with -10.6%.
Regarding `COCCN1C[C@H]2CCN(C(=O)c3cc(C)on3)CC[C@H]2S1(=O)=O`, the cytotoxicity at 70.5 h is -5.47%.
As to `CCNc1cc2c(nn1)CCN(C(=O)c1cc3c(s1)CCOC3)C2`, the cytotoxicity at 70.5 h was -9.07%.
As for `C=C(C)COc1ccc(C(=O)NCC2CC(CC)=NO2)cc1` (centres undefined), the cytotoxicity at 70.5 h is -15.2%.
Then `Cc1oncc1C(=O)N1CC[C@H]2[C@@H]1CCC(=O)N2c1cccnc1`, with -14.4%; and `CN(C)C(=O)N1CC(=O)NCC12CCN(C(=O)c1ccco1)C2` (centres undefined), with -7.28%.
As to `CCO[C@@H]1CO[C@@]2(CCN(Cc3ccc4c(c3)OCO4)C2)C1`, the cytotoxicity at 70.5 h was -17.3%.
In the case of `CCn1cc(-c2cc(C(F)(F)F)nc(NC3CCCC3)n2)c(C)n1` it was -6.79%; in that of `CC(C)c1nccn1-c1cccc(C2CCCN(C3CCCC3)C2)n1` (centres undefined), -12.4%.
Take `Cc1ccc(CC(=O)NCC(O)c2ccc(Cl)cc2Cl)cn1` (centres undefined): the cytotoxicity at 70.5 h is 3.42%.
Take `COc1ccccc1OC1(C(=O)O)CCN(c2ncccc2F)CC1`: the cytotoxicity at 70.5 h is -7.34%.
As for `Cc1noc(C)c1C(C)NC(=O)N1CCCN(C(=O)c2ccsc2)CC1` (centres undefined), the cytotoxicity at 70.5 h was -13.8%.
Then `CCN(CC)CC(=O)N1CCCC1Cn1cccn1` (centres undefined), with -4.89%.
Take `Cc1cccc(CN2CCN(C(=O)c3cccnc3O)CC2)c1`: the cytotoxicity at 70.5 h is -4.88%.
Take `COc1cc(C(C)=O)ccc1OCC(=O)N(Cc1ccsc1)C1CC1`: the cytotoxicity at 70.5 h was -12%.
Consider `Cc1occc1C(=O)N1CCc2c(CNc3ncccn3)cncc2C1`, for which the cytotoxicity at 70.5 h is -1.28%.
In the case of `N#Cc1ccc(F)c(CNc2ccc(F)cc2OCCO)c1` it was 16.6%; in that of `CS(=O)(=O)NCCNC(=O)NC1(c2ccc(F)cc2)CCCC1`, -9.82%.
In the case of `Cn1ccc(C(=O)N2CCC(Cc3cccc4ncccc34)CC2)n1` it was -6.71%; in that of `O=C(CC1CN(Cc2ccccc2)CCO1)Nc1ccsc1` (centres undefined), 8.64%; in that of `CCCn1nc(C)c2c1NC(=O)CC2c1ccc(CN2CCCC2)s1` (centres undefined), -9.08%.
As to `Cc1cc(C)c2nc(CN(C)C(C)c3ccncn3)cc(O)c2c1` (centres undefined), the cytotoxicity at 70.5 h is -4.38%.
With `Cc1nc(N2CCCC2)nc2c1CCN(C(=O)CC1CC1)CC2`, the cytotoxicity at 70.5 h was -8.4%.
Then `COc1cc(C(=O)NS(=O)(=O)c2cncc(Br)c2)cc(Cl)c1OC`, with -15.8%; and `COCc1ccccc1CNCc1c(C)nn(C)c1N(C)C`, with -0.163%.
`CCc1nnc2n1CCN(C(=O)C1CCC(n3cccc3)CC1)C2` (centres undefined): the cytotoxicity at 70.5 h was -6.9%.
In the case of `COc1ccc(CNCCc2cc(F)cc3c2OCOC3)cc1O` it was 2.79%.
In the case of `CCC(CC)CNCC1(S(C)(=O)=O)CCOCC1` it was -3.95%.
In the case of `Cc1nc(CCCNC(=O)c2coc(CN3CCOCC3)c2)sc1C` it was -0.625%; in that of `COc1ncc(CN(C)C(C)c2cccnc2)cn1` (centres undefined), 9.74%; in that of `C[C@@H]1CN(Cc2nc(C(N)=O)no2)CC[C@@]1(O)C1CCOCC1`, -8.91%.
Take `CN(CCc1ccncc1)C(=O)C1CSCN1C(=O)CC(C)(C)C` (centres undefined): the cytotoxicity at 70.5 h is -12.5%.
Then `CC(C)N1CCC(NC(=O)NC2CCOc3ccc(Br)cc32)CC1` (centres undefined), with 0.813%.
As for `OCC(CO)N1CCC(c2nnc(Cn3ccnc3)n2C2CC2)CC1`, the cytotoxicity at 70.5 h was 12.4%.
`O=C(Nc1ccccc1)C1CN(Cc2ccsc2)CC12CCOCC2` (centres undefined): the cytotoxicity at 70.5 h was -18.9%.
Turning to `CN1CCOC(CNC(=O)CCCOCCc2ccccc2)C1` (centres undefined), the cytotoxicity at 70.5 h was -14.2%.
Then `CCc1nsc(N2CCCN(C(=O)COc3ccccc3)CC2)n1`, with -3.48%.
Take `Cc1ccnn1CCC(=O)N1CCCC2(C1)NC(=O)c1ccccc1O2` (centres undefined): the cytotoxicity at 70.5 h was -2.25%.
Take `CCS(=O)(=O)NC[C@]12COC[C@H]1CN(Cc1ccsc1)C2`: the cytotoxicity at 70.5 h was 7.84%.
Then `COCC(=O)N1CCCC(c2csc(NC(C)=O)n2)C1` (centres undefined), with -8.74%.
In the case of `CNC(=O)CN1CCN(C(=O)Nc2ccc(Cl)cc2F)CC1` it was -1.72%; in that of `O=C(NCCNc1ncccn1)C1CC(=O)N(Cc2ccccc2)C1` (centres undefined), -8.64%.
With `CCc1cc(C(F)(F)F)c2c(C)nn(CC(=O)O)c2n1`, the cytotoxicity at 70.5 h stood at 4.66%.
Consider `CCNC(=O)CCC(=O)Nc1ccc2nn(C(C)C)cc2c1`, for which the cytotoxicity at 70.5 h worked out at 18.4%.
For the molecule `O=C(Cc1csc(-c2ncccn2)n1)N1CCN2CCCCC2C1` (centres undefined), the cytotoxicity at 70.5 h came to 7.23%.
Consider `Cc1cc(S(=O)(=O)NCC(O)c2sccc2C)ccc1F` (centres undefined), for which the cytotoxicity at 70.5 h is -1.45%.
Then `CN(Cc1noc2c1CCCC2)C(=O)CN1C(=O)COc2ccccc21`, with -6.93%; and `Cc1ncsc1CN1C[C@@H]2COC[C@]2(CNC(=O)c2ccccc2)C1`, with -7.33%; and `Cc1cc(C)cc(N(C)S(=O)(=O)c2cc3c(c(C(=O)O)c2)OCCO3)c1`, with -12.8%.
Turning to `O=C(N[C@H]1COC[C@@H]1N1CCCC1)c1csc(Cc2ccccc2)n1`, the cytotoxicity at 70.5 h was -14.1%.
Regarding `CC(C)=CCN1CCN(C(=O)CSc2ccccn2)[C@H]2CS(=O)(=O)C[C@H]21`, the cytotoxicity at 70.5 h was -8.43%.
Regarding `COC(=O)c1cc(C(=O)N2CCCCCC2)n(-c2ccccc2)n1`, the cytotoxicity at 70.5 h stood at 11.6%.
Then `CCN(CC)c1ccc2ccc(C(=O)O)cn12`, with -5.88%; and `Cc1cc(CNc2cc(-c3ccoc3C)nn2CCO)c(C)o1`, with -12.2%.
For `Cn1cc(N2CCC(NC(=O)c3c(F)cccc3Cl)C2=O)cn1` (centres undefined), the cytotoxicity at 70.5 h is -3.25%.
On to `Cn1ccc(C(=O)N(CC(F)F)c2cccc(Cl)c2)cc1=O`, for which the cytotoxicity at 70.5 h is -2.11%.
In the case of `C[C@@H]1C(=O)NC[C@H]2CN(CCc3ccccc3)C[C@H]21` it was -0.303%; in that of `CC(N)Cc1ccccc1Sc1ccc(O)cc1` (centres undefined), -7.28%.
In the case of `CN(CC1CCOCC1)C(=O)NCCCN1CCCCC1`, the cytotoxicity at 70.5 h was -3.15%.
For `COc1c(C)cnc(CN(C)C(=O)Nc2ccc3c(c2)CCO3)c1C`, the cytotoxicity at 70.5 h amounted to 19%.
For `CC(=O)N1N=C(c2ccco2)OC1C(=O)N(CC(C)C)CC(C)C` (centres undefined), the cytotoxicity at 70.5 h is -1.96%.
In the case of `Cc1noc(C)c1CNCc1ccccc1N(C)C1CCN(C)CC1` it was -4.38%; in that of `COC(=O)CN(Cc1ccccc1C)C(=O)COCC1CC1`, -2.06%; in that of `COc1ccccc1/C=C/CNCC1CCc2nncn2C1` (centres undefined), 8.27%.
In the case of `Cc1cccc(CN2C(=O)CCC23CCN(c2ccccn2)CC3)n1` it was -9.61%; in that of `Cc1ccc2c(c1)nc1n2[C@@H](CNC(=O)c2cncnc2)COC1`, -2.41%; in that of `CCN(Cc1ccc2c(c1)OCCO2)S(=O)(=O)N(C)C(C)C`, -7.62%.
Then `Cc1nc(CN2CCCC2c2ccsc2)nc2ccccc12` (centres undefined), with 4.71%.
Turning to `CN(CC1CCOC1)c1ccc(Br)cn1` (centres undefined), the cytotoxicity at 70.5 h came out at 29.9%.
Then `Cc1ncc(C(=O)N2CCC(N3CCc4ccccc4C3)CC2)c(O)n1`, with 2.23%; and `Clc1cccc(-n2cnnn2)c1N1CCOCC1`, with -5.42%.
Then `CC(=O)N1CC(=O)N(c2cnn(C)c2)CC12CCN(Cc1cccs1)C2` (centres undefined), with -9.86%.
Then `CN1CCN(c2ccc(Cl)cc2NC(=O)c2ccco2)CC1`, with 12.6%.
`O=c1cc(CN2CCCCC2c2cccc(F)c2)[nH]c2ncnn12` (centres undefined): the cytotoxicity at 70.5 h was -10.8%.
For `COc1ccc(CNc2ncc(-c3cc(C)no3)c(C(C)C)n2)cc1`, the cytotoxicity at 70.5 h is -4.08%.
For the molecule `COc1c(C2CCCN2C(=O)c2cscn2)c(C)nn1C` (centres undefined), the cytotoxicity at 70.5 h amounted to 18.5%.
Turning to `CC(NC(=O)NC1CCN(Cc2ccncc2)CC1)c1cccc(F)c1` (centres undefined), the cytotoxicity at 70.5 h was -6.53%.
For `Cn1cc(C(=O)N[C@@H]2CN(Cc3cccs3)[C@@H]3CCCO[C@@H]32)cn1`, the cytotoxicity at 70.5 h was -14.7%.
For the molecule `C[C@H](c1ccc(Cl)cc1)n1c(C2CC2)n[nH]c1=O`, the cytotoxicity at 70.5 h was -3.55%.
Consider `CC(C)c1noc(Cn2ncc3ccccc3c2=O)n1`, for which the cytotoxicity at 70.5 h was -7.17%.
As for `O=C(NC1CCCC1)c1cc(Sc2ncccn2)ccn1`, the cytotoxicity at 70.5 h is -13.6%.
In the case of `CC(C)C(Sc1nnc(C2CC2)n1C1CC1)C(=O)NCc1cccnc1` (centres undefined), the cytotoxicity at 70.5 h was -8.64%.
In the case of `Cc1c(CN2CCCC(O)C2)[nH]c2ccc(F)cc12` (centres undefined) it was 0.643%; in that of `COc1ccc(Cl)cc1C(=O)N(C)Cc1cc(C)on1`, -3.26%.
